Source: article PMC5218480 (PLoS ONE, 2017)

System: MV-4-11 cells
Assay: Gene expression microarray analysis (Affymetrix PrimeView) and GSEA
Assay type: cell-based, human
Set-up: RFU PODN (11730768_x_at) / Fold change /veh PODN (11730768_x_at) / RFU LINC00158 (11744669_a_at) / Fold change /veh LINC00158 (11744669_a_at) / RFU DUSP10 (11751237_a_at) / Fold change /veh DUSP10 (11751237_a_at) / RFU ID3 (11757404_x_at) / Fold change /veh ID3 (11757404_x_at) / RFU PLEKHG5 (11737974_s_at) / Fold change /veh PLEKHG5 (11737974_s_at) / RFU LRRC4B (11730491_at) / Fold change /veh LRRC4B (11730491_at) / RFU GIMAP4 (11747438_a_at) / Fold change /veh GIMAP4 (11747438_a_at) / RFU KRT8 (11758183_x_at) / Fold change /veh KRT8 (11758183_x_at) / RFU CNN1 (11734310_a_at) / Fold change /veh CNN1 (11734310_a_at) / RFU VPS37D (11726825_at) / Fold change /veh VPS37D (11726825_at) / RFU C10orf10 (11716522_x_at) / Fold change /veh C10orf10 (11716522_x_at) / RFU KIR2DL2 /// KIR2DL4 /// KIR2DL5A /// KIR2DL5B /// KIR2DS1 /// KIR2DS2 /// KIR2DS3 /// KIR2DS4 /// KIR3DL3 /// KIR3DL3 /// KIR3DS1 (11738374_at) / Fold change /veh KIR2DL2 /// KIR2DL4 /// KIR2DL5A /// KIR2DL5B /// KIR2DS1 /// KIR2DS2 /// KIR2DS3 /// KIR2DS4 /// KIR3DL3 /// KIR3DL3 /// KIR3DS1 (11738374_at) / RFU C1QL1 (11718748_at) / Fold change /veh C1QL1 (11718748_at) / RFU TMPRSS4 (11747572_a_at) / Fold change /veh TMPRSS4 (11747572_a_at) / RFU HAMP (11756126_x_at) / Fold change /veh HAMP (11756126_x_at) / RFU RNFT2 (11725882_a_at) / Fold change /veh RNFT2 (11725882_a_at) / RFU NR4A2 (11747474_a_at) / Fold change /veh NR4A2 (11747474_a_at) / RFU ABCC12 (11746883_a_at) / Fold change /veh ABCC12 (11746883_a_at) / RFU TMEM136 (11760407_x_at) / Fold change /veh TMEM136 (11760407_x_at) / RFU CLDN22 /// WWC2 (11732394_at) / Fold change /veh CLDN22 /// WWC2 (11732394_at) / RFU HLA-DPB1 (11760878_x_at) / Fold change /veh HLA-DPB1 (11760878_x_at) / RFU SPINT1 (11716480_a_at) / Fold change /veh SPINT1 (11716480_a_at) / RFU GAP43 (11754022_s_at) / Fold change /veh GAP43 (11754022_s_at) / RFU A4GNT (11735810_at) / Fold change /veh A4GNT (11735810_at) / RFU PRB3 (11715151_x_at) / Fold change /veh PRB3 (11715151_x_at) / RFU TUBB4B (11761932_at) / Fold change /veh TUBB4B (11761932_at) / RFU CAPN14 (11732068_a_at) / Fold change /veh CAPN14 (11732068_a_at) / RFU TMCC2 (11721928_a_at) / Fold change /veh TMCC2 (11721928_a_at) / RFU IRGQ (11745062_a_at) / Fold change /veh IRGQ (11745062_a_at) / RFU FAM174B (11720279_a_at) / Fold change /veh FAM174B (11720279_a_at) / RFU TMPRSS4 (11748680_a_at) / Fold change /veh TMPRSS4 (11748680_a_at) / RFU FAM212B (11763350_a_at) / Fold change /veh FAM212B (11763350_a_at) / RFU PLEKHG5 (11743358_a_at) / Fold change /veh PLEKHG5 (11743358_a_at) / RFU ZSCAN30 (11745921_a_at) / Fold change /veh ZSCAN30 (11745921_a_at) / RFU CMKLR1 (11741424_a_at) / Fold change /veh CMKLR1 (11741424_a_at) / RFU LOC101060620 /// MAPK8IP1 (11723275_at) / Fold change /veh LOC101060620 /// MAPK8IP1 (11723275_at) / RFU SPTSSB (11747773_x_at) / Fold change /veh SPTSSB (11747773_x_at) / RFU PRSS12 (11739890_at) / Fold change /veh PRSS12 (11739890_at) / RFU BIN1 (11741810_x_at) / Fold change /veh BIN1 (11741810_x_at) / RFU WNT11 (11732464_a_at) / Fold change /veh WNT11 (11732464_a_at) / RFU C10orf10 (11716521_a_at) / Fold change /veh C10orf10 (11716521_a_at) / RFU C5orf56 (11738089_at) / Fold change /veh C5orf56 (11738089_at) / RFU CYB561 (11721691_x_at) / Fold change /veh CYB561 (11721691_x_at) / RFU ANKRD19P (11752326_a_at) / Fold change /veh ANKRD19P (11752326_a_at) / RFU OR2T12 /// OR2T33 /// OR2T8 (11738714_s_at) / Fold change /veh OR2T12 /// OR2T33 /// OR2T8 (11738714_s_at) / RFU VCAN (11748164_a_at) / Fold change /veh VCAN (11748164_a_at) / RFU JSRP1 (11732532_at) / Fold change /veh JSRP1 (11732532_at) / RFU KRTAP10-11 (11738290_x_at) / Fold change /veh KRTAP10-11 (11738290_x_at) / RFU MYO3A (11730013_a_at) / Fold change /veh MYO3A (11730013_a_at) / RFU EBF3 (11725865_a_at) / Fold change /veh EBF3 (11725865_a_at) / RFU CAMK2N1 (11719241_x_at) / Fold change /veh CAMK2N1 (11719241_x_at) / RFU C5orf56 (11738088_a_at) / Fold change /veh C5orf56 (11738088_a_at) / RFU OLFML3 (11715873_a_at) / Fold change /veh OLFML3 (11715873_a_at) / RFU LOC100653217 /// NTM (11731650_a_at) / Fold change /veh LOC100653217 /// NTM (11731650_a_at) / RFU MAPK11 (11762145_a_at) / Fold change /veh MAPK11 (11762145_a_at) / RFU FIZ1 (11724087_x_at) / Fold change /veh FIZ1 (11724087_x_at) / RFU OASL (11726364_x_at) / Fold change /veh OASL (11726364_x_at) / RFU SOX15 (11748057_x_at) / Fold change /veh SOX15 (11748057_x_at) / RFU CD79A (11719716_a_at) / Fold change /veh CD79A (11719716_a_at) / RFU HIST1H1D (11736915_at) / Fold change /veh HIST1H1D (11736915_at) / RFU CASKIN2 (11723855_a_at) / Fold change /veh CASKIN2 (11723855_a_at) / RFU LOC730098 (11760151_x_at) / Fold change /veh LOC730098 (11760151_x_at) / RFU OR4N2 (11742367_at) / Fold change /veh OR4N2 (11742367_at) / RFU PRRT2 (11749266_a_at) / Fold change /veh PRRT2 (11749266_a_at) / RFU SNX32 (11753110_a_at) / Fold change /veh SNX32 (11753110_a_at) / RFU CDHR5 (11726645_a_at) / Fold change /veh CDHR5 (11726645_a_at) / RFU RCAN1 (11760418_a_at) / Fold change /veh RCAN1 (11760418_a_at) / RFU FAM167A (11723789_a_at) / Fold change /veh FAM167A (11723789_a_at) / RFU FAM26E (11764081_at) / Fold change /veh FAM26E (11764081_at) / RFU ISYNA1 (11749810_s_at) / Fold change /veh ISYNA1 (11749810_s_at) / RFU ACY1 (11761880_at) / Fold change /veh ACY1 (11761880_at) / RFU 11764098_at / Fold change /veh 11764098_at / RFU SAMD14 (11745864_x_at) / Fold change /veh SAMD14 (11745864_x_at) / RFU NPB (11741838_a_at) / Fold change /veh NPB (11741838_a_at) / RFU TMPRSS6 (11731388_a_at) / Fold change /veh TMPRSS6 (11731388_a_at) / RFU KRTAP10-2 (11738614_at) / Fold change /veh KRTAP10-2 (11738614_at) / RFU ARHGAP8 /// PRR5-ARHGAP8 (11727945_x_at) / Fold change /veh ARHGAP8 /// PRR5-ARHGAP8 (11727945_x_at) / RFU KRTAP5-7 /// NADSYN1 (11734609_at) / Fold change /veh KRTAP5-7 /// NADSYN1 (11734609_at) / RFU RASL12 (11751679_a_at) / Fold change /veh RASL12 (11751679_a_at) / RFU CDKN2B (11736163_a_at) / Fold change /veh CDKN2B (11736163_a_at) / RFU PRF1 (11729649_at) / Fold change /veh PRF1 (11729649_at) / RFU, ZNF638 /// ZNF638-IT1 / Fold change vs veh, ZNF638 /// ZNF638-IT1 / RFU, PANK3 / Fold change vs veh, PANK3 / RFU, SH3YL1 / Fold change vs veh, SH3YL1 / RFU, ZEB2 / Fold change vs veh, ZEB2 / RFU, NRIP1 / Fold change vs veh, NRIP1 / RFU, PTTG1IP / Fold change vs veh, PTTG1IP / RFU, CAPN2 / Fold change vs veh, CAPN2 / RFU, MED14 / Fold change vs veh, MED14 / RFU, SNORA58 / Fold change vs veh, SNORA58 / RFU, C1orf63 / Fold change vs veh, C1orf63 / RFU, LRRFIP1 / Fold change vs veh, LRRFIP1 / RFU, NDUFAF7 / Fold change vs veh, NDUFAF7 / RFU, SLC12A2 / Fold change vs veh, SLC12A2 / RFU, IBTK / Fold change vs veh, IBTK / RFU, ESF1 / Fold change vs veh, ESF1 / Fold change vs veh, TMEM50B / RFU, TAOK1 / Fold change vs veh, TAOK1 / RFU, ACBD3 / Fold change vs veh, ACBD3 / RFU, TMA16 / Fold change vs veh, TMA16 / RFU, RWDD3 / Fold change vs veh, RWDD3 / RFU, BCAT1 / Fold change vs veh, BCAT1 / RFU, EDEM3 / Fold change vs veh, EDEM3 / RFU, TMEM33 / Fold change vs veh, TMEM33 / RFU, WDR75 / Fold change vs veh, WDR75 / RFU, AHCTF1 / Fold change vs veh, AHCTF1 / RFU, TFRC / Fold change vs veh, TFRC / RFU, ZDHHC17 / Fold change vs veh, ZDHHC17 / RFU, NOM1 / Fold change vs veh, NOM1 / RFU, ARL8B / Fold change vs veh, ARL8B / RFU, ZBTB11 / Fold change vs veh, ZBTB11 / RFU, TAMM41 / Fold change vs veh, TAMM41 / RFU, KIAA1704 /// LOC100996395 / Fold change vs veh, KIAA1704 /// LOC100996395 / RFU, ING1 / Fold change vs veh, ING1 / RFU, TRMT61B / Fold change vs veh, TRMT61B / RFU, FUBP3 / Fold change vs veh, FUBP3 / RFU, TP53 / Fold change vs veh, TP53 / RFU, TNKS2 / Fold change vs veh, TNKS2 / RFU, ZFP14 / Fold change vs veh, ZFP14 / RFU, ACTR2 / Fold change vs veh, ACTR2 / RFU, PPP3R1 / Fold change vs veh, PPP3R1 / RFU, PIK3R1 / Fold change vs veh, PIK3R1 / RFU, HNRNPA1 / Fold change vs veh, HNRNPA1 / RFU, RNF170 / Fold change vs veh, RNF170 / RFU, ZNF28 / Fold change vs veh, ZNF28 / RFU, RNGTT / Fold change vs veh, RNGTT / RFU, OGT / Fold change vs veh, OGT / RFU, BRD1 / Fold change vs veh, BRD1 / RFU, MARS / Fold change vs veh, MARS / RFU, ZNF655 / Fold change vs veh, ZNF655 / RFU, FAHD1 / Fold change vs veh, FAHD1 / RFU, BDP1 / Fold change vs veh, BDP1 / RFU, LRRCC1 / Fold change vs veh, LRRCC1 / RFU, ARID1A / Fold change vs veh, ARID1A / RFU, ZNF146 / Fold change vs veh, ZNF146 / RFU, ZNF330 / Fold change vs veh, ZNF330 / RFU, GPN3 / Fold change vs veh, GPN3 / RFU, C9orf123 / Fold change vs veh, C9orf123 / RFU, N4BP2L2 / Fold change vs veh, N4BP2L2 / RFU, ARFIP1 / Fold change vs veh, ARFIP1 / RFU, FAM179B / Fold change vs veh, FAM179B / RFU, BCL10 / Fold change vs veh, BCL10 / RFU, UHRF1BP1L / Fold change vs veh, UHRF1BP1L / RFU, BET1 / Fold change vs veh, BET1 / RFU, CNOT2 / Fold change vs veh, CNOT2 / RFU, ZNF268 / Fold change vs veh, ZNF268 / Fold change vs veh, ZNF507 / RFU, DGCR2 / Fold change vs veh, DGCR2 / RFU, WDSUB1 / Fold change vs veh, WDSUB1 / Fold change vs veh, HSP90B1 /// MIR3652 / RFU, ADSS / Fold change vs veh, ADSS / RFU, GK / Fold change vs veh, GK / RFU, ZNF148 / Fold change vs veh, ZNF148 / RFU, TAF9 / Fold change vs veh, TAF9 / RFU, SLC1A5 / Fold change vs veh, SLC1A5 / RFU, SLMO2 / Fold change vs veh, SLMO2 / RFU, ABCC4 / Fold change vs veh, ABCC4 / RFU, LOC101060439 /// RAP1B / Fold change vs veh, LOC101060439 /// RAP1B / RFU, RFX7 / Fold change vs veh, RFX7 / RFU, GTPBP10 / Fold change vs veh, GTPBP10 / RFU, CNEP1R1 / Fold change vs veh, CNEP1R1 / RFU, BIVM-ERCC5 /// ERCC5 / Fold change vs veh, BIVM-ERCC5 /// ERCC5 / RFU, ILF3 / Fold change vs veh, ILF3 / RFU 11762660_at / Fold change /veh 11762660_at / RFU VCAN (11757783_s_at) / Fold change /veh VCAN (11757783_s_at) / RFU DDX43 (11728927_at) / Fold change /veh DDX43 (11728927_at) / RFU KRT8 (11758188_x_at) / Fold change /veh KRT8 (11758188_x_at) / RFU NKD1 (11759106_at) / Fold change /veh NKD1 (11759106_at) / RFU SRD5A1 (11742802_a_at) / Fold change /veh SRD5A1 (11742802_a_at) / RFU TPSAB1 /// TPSB2 (11721975_s_at) / Fold change /veh TPSAB1 /// TPSB2 (11721975_s_at) / RFU GSTM3 (11746129_a_at) / Fold change /veh GSTM3 (11746129_a_at) / RFU IL23R (11737362_x_at) / Fold change /veh IL23R (11737362_x_at) / RFU TMEM51 (11727254_a_at) / Fold change /veh TMEM51 (11727254_a_at) / RFU PIWIL2 (11732686_x_at) / Fold change /veh PIWIL2 (11732686_x_at) / RFU ORM1 (11744905_x_at) / Fold change /veh ORM1 (11744905_x_at) / RFU CCDC152 (11743942_at) / Fold change /veh CCDC152 (11743942_at) / RFU ECM1 (11717891_a_at) / Fold change /veh ECM1 (11717891_a_at) / RFU IL23R (11748794_a_at) / Fold change /veh IL23R (11748794_a_at) / RFU TNFAIP8L3 (11732012_x_at) / Fold change /veh TNFAIP8L3 (11732012_x_at) / RFU MBOAT4 (11741988_at) / Fold change /veh MBOAT4 (11741988_at) / RFU 11764193_at / Fold change /veh 11764193_at / RFU TMEM53 (11763286_at) / Fold change /veh TMEM53 (11763286_at) / RFU MAGEB2 (11727129_at) / Fold change /veh MAGEB2 (11727129_at) / RFU TMEM200A (11744735_a_at) / Fold change /veh TMEM200A (11744735_a_at) / RFU CCDC152 (11751479_a_at) / Fold change /veh CCDC152 (11751479_a_at) / RFU FAM211A (11726209_a_at) / Fold change /veh FAM211A (11726209_a_at) / RFU RGS16 (11746705_a_at) / Fold change /veh RGS16 (11746705_a_at) / RFU VCAN (11755009_s_at) / Fold change /veh VCAN (11755009_s_at) / RFU RHOB (11743442_s_at) / Fold change /veh RHOB (11743442_s_at) / RFU RGS16 (11720943_a_at) / Fold change /veh RGS16 (11720943_a_at) / RFU RGS16 (11720944_at) / Fold change /veh RGS16 (11720944_at) / RFU, VPS4B / Fold change vs veh, VPS4B / RFU, CREB1 / Fold change vs veh, CREB1 / RFU, DNAJC13 / Fold change vs veh, DNAJC13 / RFU, GNAQ / Fold change vs veh, GNAQ / RFU, CDK5R1 / Fold change vs veh, CDK5R1 / RFU, ZRANB3 / Fold change vs veh, ZRANB3 / RFU, CUL4A / Fold change vs veh, CUL4A / RFU, CCNY / Fold change vs veh, CCNY / RFU, UFL1 / Fold change vs veh, UFL1 / RFU, COG3 / Fold change vs veh, COG3 / RFU, DIAPH2 / Fold change vs veh, DIAPH2 / RFU, SKA2 / Fold change vs veh, SKA2 / RFU, AFF3 / Fold change vs veh, AFF3 / RFU, LMF1 / Fold change vs veh, LMF1 / RFU, IPO11 / Fold change vs veh, IPO11 / RFU, DFFB / Fold change vs veh, DFFB / RFU, FOXP1 / Fold change vs veh, FOXP1 / RFU, CARD8 / Fold change vs veh, CARD8 / RFU, STRN3 / Fold change vs veh, STRN3 / RFU, ADK / Fold change vs veh, ADK / RFU, RASSF2 / Fold change vs veh, RASSF2 / RFU, WIPF1 / Fold change vs veh, WIPF1 / RFU, LARP1B / Fold change vs veh, LARP1B / RFU, RASA1 / Fold change vs veh, RASA1 / RFU, RB1 / Fold change vs veh, RB1 / RFU, PPFIA1 / Fold change vs veh, PPFIA1 / RFU, MAT2A / Fold change vs veh, MAT2A / RFU, CCT5 / Fold change vs veh, CCT5 / RFU, WDR92 / Fold change vs veh, WDR92 / RFU, CUX1 / Fold change vs veh, CUX1 / RFU, TTC7A / Fold change vs veh, TTC7A / RFU, TMEM135 / Fold change vs veh, TMEM135 / RFU, DEPTOR / Fold change vs veh, DEPTOR / RFU, CPM / Fold change vs veh, CPM / RFU, DNAJB6 / Fold change vs veh, DNAJB6 / RFU, CACNA2D3 / Fold change vs veh, CACNA2D3 / RFU, DTX4 / Fold change vs veh, DTX4 / RFU, TFCP2 / Fold change vs veh, TFCP2 / RFU, GMCL1 /// GMCL1P1 / Fold change vs veh, GMCL1 /// GMCL1P1 / RFU, AEBP2 / Fold change vs veh, AEBP2 / RFU, SNHG1 /// SNORD22 /// SNORD25 /// SNORD26 /// SNORD27 /// SNORD28 /// SNORD29 /// SNORD31 / Fold change vs veh, SNHG1 /// SNORD22 /// SNORD25 /// SNORD26 /// SNORD27 /// SNORD28 /// SNORD29 /// SNORD31 / Fold change (Aza/veh), C12orf56 (ProbeSet 11735607_a_at) / Fold change (ACY-1035/veh), C12orf56 (ProbeSet 11735607_a_at) / Fold change (Aza/veh), FGFR1OP (ProbeSet 11751329_s_at) / Fold change (ACY-1035/veh), FGFR1OP (ProbeSet 11751329_s_at) / Fold change (Aza/veh), VPS36 (ProbeSet 11739960_a_at) / Fold change (ACY-1035/veh), VPS36 (ProbeSet 11739960_a_at) / RFU SYPL1 (11715823_x_at) / Fold change /veh SYPL1 (11715823_x_at) / RFU IGFBP7 (11715501_s_at) / Fold change /veh IGFBP7 (11715501_s_at) / RFU REEP3 (11722064_at) / Fold change /veh REEP3 (11722064_at) / RFU IGLL1 (11728026_x_at) / Fold change /veh IGLL1 (11728026_x_at): dose or concentration left out as unconfirmed
Conditions: MV-4-11 cells, 48 hours

## Nc1ccc(-c2cccs2)cc1NC(=O)c1ccc2c(c1)cc(C1CC1)n2CCN1CCOCC1 [ACY-1035]
  RFU GAP43 (11754022_s_at): 68.94 RFU
